Source: patent US11959122B2

Tested on: microbial flora in the target watershed
Test: minimum inhibitory concentration (MIC) by EUCAST database and drug resistance prediction invalid concentration PNECr
Conditions: PNECR=MIC/AF, AF 10
From the text: Minimum inhibitory concentration (MIC) of some antibiotics and drug resistance prediction invalid concentration (PNECr) of microbes

| SMILES | PNECr |
| --- | --- |
| NCC[C@H](O)C(=O)N[C@@H]1C[C@H](N)[C@@H](O[C@H]2O[C@H](CN)[C@@H](O)[C@H](O)[C@H]2O)[C@H](O)[C@H]1O[C@H]1O[C@H](CO)[C@@H](O)[C@H](N)[C@H]1O [Amikacin] | 25 |
| C[C@@H]1[C@H](O)[C@@H](C)/C=C/C=C/C=C/C=C/C=C/C=C/C=C/[C@H](O[C@@H]2O[C@H](C)[C@@H](O)[C@H](N)[C@@H]2O)C[C@@H]2O[C@](O)(C[C@@H](O)C[C@@H](O)[C@H](O)CC[C@@H](O)C[C@@H](O)CC(=O)O[C@H]1C)C[C@H](O)[C@H]2C(=O)O [Amphotericin B] | 0.8 |
| COC[C@H]1O[C@@H](OC2OC[C@@H]3O[C@]4(O[C@H]3[C@H]2OC(=O)C(C)C)O[C@H](C)[C@@](O)(C(C)=O)[C@@H]2OCO[C@H]24)[C@@H](OC)[C@@H](O)[C@@H]1O[C@@H]1O[C@H](C)[C@H](OC)[C@H](O[C@H]2C[C@@]3(C)OC4(C[C@@H](O)[C@H](O[C@H]5C[C@@H](O)[C@H](OC(=O)c6c(C)c(Cl)c(O)c(Cl)c6OC)[C@@H](C)O5)[C@@H](C)O4)O[C@@H]3[C@@H](C)O2)[C@H]1O (stereo partly shown) [Avilamycin] | 100 |
| C[C@@H](O)[C@H]1C(=O)N2C(C(=O)O)=C(S[C@@H]3CN[C@H](CNS(N)(=O)=O)C3)[C@H](C)[C@H]12 [Doripenan] | 0.2 |
| O=C1CN(/N=C/c2ccc([N+](=O)[O-])o2)C(=O)N1 [Furantoin] | 400 |
| CC1(C)S[C@@H]2[C@H](/N=C/N3CCCCCC3)C(=O)N2[C@H]1C(=O)O [Messilinan] | 6.4 |
| CN(C)[C@@H]1C(O)=C(C(N)=O)C(=O)[C@@]2(O)C(O)=C3C(=O)c4c(O)cccc4[C@@](C)(O)[C@H]3[C@H](O)[C@@H]12 [Oxytetracycline] | 12.5 |
| CS(=O)(=O)c1ccc([C@@H](O)[C@@H](CO)NC(=O)C(Cl)Cl)cc1 [Thiamphenicol] | 50 |
| CC1(C)S[C@@H]2[C@H](NC(=O)[C@H](C(=O)O)c3ccsc3)C(=O)N2[C@H]1C(=O)O [Ticarcillin] | 25 |

Tested on: microbial flora in the target watershed
Test: not given
Conditions: determined by EUCAST database; unit assumed; cited from earlier work

| SMILES | Observed MIC [µg/mL] |
| --- | --- |
| NCC[C@H](O)C(=O)N[C@@H]1C[C@H](N)[C@@H](O[C@H]2O[C@H](CN)[C@@H](O)[C@H](O)[C@H]2O)[C@H](O)[C@H]1O[C@H]1O[C@H](CO)[C@@H](O)[C@H](N)[C@H]1O [Amikacin] | 250 |
| CC1(C)S[C@@H]2[C@H](NC(=O)[C@H](N)c3ccc(O)cc3)C(=O)N2[C@H]1C(=O)O [Amoxicillin] | 4 |
| C[C@@H]1[C@H](O)[C@@H](C)/C=C/C=C/C=C/C=C/C=C/C=C/C=C/[C@H](O[C@@H]2O[C@H](C)[C@@H](O)[C@H](N)[C@@H]2O)C[C@@H]2O[C@](O)(C[C@@H](O)C[C@@H](O)[C@H](O)CC[C@@H](O)C[C@@H](O)CC(=O)O[C@H]1C)C[C@H](O)[C@H]2C(=O)O [Amphotericin B] | 8 |
| CC1(C)S[C@@H]2[C@H](NC(=O)[C@H](N)c3ccccc3)C(=O)N2[C@H]1C(=O)O [Ampicillin] | 4 |
| COC[C@H]1O[C@@H](OC2OC[C@@H]3O[C@]4(O[C@H]3[C@H]2OC(=O)C(C)C)O[C@H](C)[C@@](O)(C(C)=O)[C@@H]2OCO[C@H]24)[C@@H](OC)[C@@H](O)[C@@H]1O[C@@H]1O[C@H](C)[C@H](OC)[C@H](O[C@H]2C[C@@]3(C)OC4(C[C@@H](O)[C@H](O[C@H]5C[C@@H](O)[C@H](OC(=O)c6c(C)c(Cl)c(O)c(Cl)c6OC)[C@@H](C)O5)[C@@H](C)O4)O[C@@H]3[C@@H](C)O2)[C@H]1O (stereo partly shown) [Avilamycin] | 1000 |
| CC[C@H]1OC(=O)[C@H](C)[C@@H](O[C@H]2C[C@@](C)(OC)[C@@H](O)[C@H](C)O2)[C@H](C)[C@@H](O[C@@H]2O[C@H](C)C[C@H](N(C)C)[C@H]2O)[C@](C)(O)C[C@@H](C)CN(C)[C@H](C)[C@@H](O)[C@]1(C)O [Azithromycin] | 16 |
| C[C@H]1[C@H](NC(=O)/C(=N\OC(C)(C)C(=O)O)c2csc(N)n2)C(=O)N1S(=O)(=O)O [Aztreonam] | 32 |
| N[C@@H](C(=O)N[C@@H]1C(=O)N2C(C(=O)O)=C(Cl)CS[C@H]12)c1ccccc1 [Cefaclor] | 32 |
| Cc1nnc(SCC2=C(C(=O)O)N3C(=O)[C@@H](NC(=O)Cn4cnnn4)[C@H]3SC2)s1 [Cefazolin] | 32 |
| CO/N=C(\C(=O)N[C@@H]1C(=O)N2C(C(=O)[O-])=C(C[N+]3(C)CCCC3)CS[C@H]12)c1csc(N)n1 [Cefepime] | 8 |
| CO/N=C(\C(=O)N[C@@H]1C(=O)N2C(C(=O)O)=C(COC(C)=O)CS[C@H]12)c1csc(N)n1 [Cefotaxime] | 2 |
| CO/N=C(\C(=O)N[C@@H]1C(=O)N2C(C(=O)[O-])=C(C[n+]3cccc4c3CCC4)CS[C@H]12)c1csc(N)n1 [Cefpirome] | 4 |
| CC(C)(O/N=C(\C(=O)N[C@@H]1C(=O)N2C(C(=O)[O-])=C(C[n+]3ccccc3)CS[C@H]12)c1csc(N)n1)C(=O)O [Ceftazidime] | 16 |
| Nc1nc(/C(=C/CC(=O)O)C(=O)N[C@@H]2C(=O)N3C(C(=O)O)=CCS[C@H]23)cs1 [Ceftibuten] | 8 |
| CO/N=C(\C(=O)N[C@@H]1C(=O)N2C(C(=O)O)=C(CSC(=O)c3ccco3)CS[C@H]12)c1csc(N)n1 [Ceftiofur] | 8 |
| CO/N=C(\C(=O)N[C@@H]1C(=O)N2C(C(=O)O)=C(CSc3nc(=O)c(=O)[nH]n3C)CS[C@H]12)c1csc(N)n1 [Ceftriaxone] | 2 |
| CO/N=C(\C(=O)N[C@@H]1C(=O)N2C(C(=O)O)=C(COC(N)=O)CS[C@H]12)c1ccco1 [Cefuroxime] | 8 |
| O=C(O)c1cn(C2CC2)c2cc(N3CCNCC3)c(F)cc2c1=O [Ciprofloxacin] | 2 |
| NC1CCN(c2c(F)cc3c(=O)c(C(=O)O)cn(C4CC4)c3c2Cl)C1 (stereo not shown) [Clinafloxacin] | 32 |
| Cc1onc(-c2ccccc2Cl)c1C(=O)N[C@@H]1C(=O)N2[C@@H]1SC(C)(C)[C@@H]2C(=O)O [Cloxacillin] | 64 |
| CCCCCCCCCC(=O)N[C@@H](Cc1c[nH]c2ccccc12)C(=O)N[C@H](CC(N)=O)C(=O)N[C@@H](CC(=O)O)C(=O)N[C@@H]1C(=O)NCC(=O)N[C@@H](CCCN)C(=O)N[C@@H](CC(=O)O)C(=O)N[C@H](C)C(=O)N[C@@H](CC(=O)O)C(=O)NCC(=O)N[C@H](CO)C(=O)N[C@@H]([C@H](C)CC(=O)O)C(=O)N[C@@H](CC(=O)c2ccccc2N)C(=O)O[C@@H]1C [Daptomycin] | 32 |
| CN1CCN(c2cc3c(cc2F)c(=O)c(C(=O)O)cn3-c2ccc(F)cc2)CC1 [Difloxacin] | 2 |
| C[C@@H](O)[C@H]1C(=O)N2C(C(=O)O)=C(S[C@@H]3CN[C@H](CNS(N)(=O)=O)C3)[C@H](C)[C@H]12 [Doripenan] | 2 |
| CCN1CCN(c2cc3c(cc2F)c(=O)c(C(=O)O)cn3C2CC2)CC1 [Enrofloxacin] | 8 |
| C[C@@H](O)[C@H]1C(=O)N2C(C(=O)O)=C(S[C@@H]3CN[C@H](C(=O)Nc4cccc(C(=O)O)c4)C3)[C@H](C)[C@H]12 [Ertapenem] | 2 |
| CC[C@H]1OC(=O)[C@H](C)[C@@H](O[C@H]2C[C@@](C)(OC)[C@@H](O)[C@H](C)O2)[C@H](C)[C@@H](O[C@@H]2O[C@H](C)C[C@H](N(C)C)[C@H]2O)[C@](C)(O)C[C@@H](C)C(=O)[C@H](C)[C@@H](O)[C@]1(C)O [Erythromycin] | 16 |
| C[C@@H](O)[C@H]1C(=O)N2C(C(=O)O)=C([C@H]3CCCO3)S[C@H]12 [Faropenem] | 8 |
| CCc1c(Cl)c(O)c(Cl)c(O)c1C(=O)O[C@H]1[C@H](O)[C@H](OC)[C@H](OC/C2=C\C=C\C[C@H](O)/C(C)=C/[C@H](CC)[C@@H](O[C@@H]3OC(C)(C)[C@@H](OC(=O)C(C)C)[C@H](O)[C@@H]3O)/C(C)=C/C(C)=C/C[C@@H]([C@@H](C)O)OC2=O)O[C@@H]1C [Fidaxomicin] | 8 |

| SMILES | Observed MIC [µg/mL] |
| --- | --- |
| OC(Cn1cncn1)(Cn1cncn1)c1ccc(F)cc1F [Fluconazol] | 64 |
| CC1CCc2cc(F)cc3c(=O)c(C(=O)O)cn1c23 (stereo not shown) [Flumequine] | 64 |
| O=C1CN(/N=C/c2ccc([N+](=O)[O-])o2)C(=O)N1 [Furantoin] | 4000 |
| COc1c(N2CCNC(C)C2)c(F)cc2c(=O)c(C(=O)O)cn(C3CC3)c12 (stereo not shown) [Gatifloxacin] | 4 |
| NNC(=O)c1ccncc1 [Isoniazide] | 64 |
| CC(=O)N1CCN(c2ccc(OCC3COC(Cn4ccnc4)(c4ccc(Cl)cc4Cl)O3)cc2)CC1 (stereo not shown) [Ketoconazole] | 4 |
| C[C@@H](O)[C@H]1C(=O)N2C(C(=O)O)=C(S[C@@H]3CN[C@H](C(=O)N(C)C)C3)[C@H](C)[C@H]12 [MeropeneM] | 2 |
| CC1(C)S[C@@H]2[C@H](/N=C/N3CCCCCC3)C(=O)N2[C@H]1C(=O)O [Messilinan] | 64 |
| Cc1ncc([N+](=O)[O-])n1CCO [Metronidazole] | 16 |
| C/C(=C\C(=O)OCCCCCCCCC(=O)O)C[C@@H]1OC[C@H](C[C@@H]2O[C@H]2[C@@H](C)[C@H](C)O)[C@@H](O)[C@H]1O [Mupirocin] | 32 |
| CCN[C@@H]1C[C@H](N)[C@@H](O[C@H]2OC(CN)=CC[C@H]2N)[C@H](O)[C@H]1O[C@H]1OC[C@](C)(O)[C@H](NC)[C@H]1O [Netilmicin] | 16 |
| CCn1cc(C(=O)O)c(=O)c2cc(F)c(N3CCNCC3)cc21 [Norfloxacin] | 16 |
| Cc1onc(-c2ccccc2)c1C(=O)N[C@@H]1C(=O)N2[C@@H]1SC(C)(C)[C@@H]2C(=O)O [Oxacillin] | 32 |
| CN(C)[C@@H]1C(O)=C(C(N)=O)C(=O)[C@@]2(O)C(O)=C3C(=O)c4c(O)cccc4[C@@](C)(O)[C@H]3[C@H](O)[C@@H]12 [Oxytetracycline] | 125 |
| CC1(C)S[C@@H]2[C@H](NC(=O)COc3ccccc3)C(=O)N2[C@H]1C(=O)O [Phenoxymethylpenicillin] | 4 |
| CCN1CCN(C(=O)N[C@@H](C(=O)N[C@@H]2C(=O)N3[C@@H]2SC(C)(C)[C@@H]3C(=O)O)c2ccccc2)C(=O)C1=O [Piperacillin] | 4 |
| C=C[C@]1(C)C[C@@H](OC(=O)CS[C@@H]2C[C@H]3CC[C@@H](C2)N3C)[C@]2(C)[C@H](C)CC[C@]3(CCC(=O)[C@H]32)[C@@H](C)[C@@H]1O [Retapamulin] | 64 |
| CC[C@H]1OC(=O)[C@H](C)[C@@H](O[C@H]2C[C@@](C)(OC)[C@@H](O)[C@H](C)O2)[C@H](C)[C@@H](O[C@@H]2O[C@H](C)C[C@H](N(C)C)[C@H]2O)[C@](C)(O)C[C@@H](C)/C(=N\OCOCCOC)[C@H](C)[C@@H](O)[C@]1(C)O [Roxithromycin] | 2 |
| Cc1ncc([N+](=O)[O-])n1CC(C)O (stereo not shown) [Secnidazole] | 32 |
| CN[C@@H]1[C@H](O)[C@H](NC)[C@H]2O[C@@]3(O)C(=O)C[C@@H](C)O[C@H]3O[C@@H]2[C@H]1O [Spectinomycin] | 2 |
| CC[C@H]1OC(=O)[C@H](C)C(=O)[C@H](C)[C@@H](O[C@@H]2O[C@H](C)C[C@H](N(C)C)[C@H]2O)[C@](C)(OC)C[C@@H](C)C(=O)[C@H](C)[C@H]2N(CCCCn3cnc(-c4cccnc4)c3)C(=O)O[C@]12C [Telithromycin] | 16 |
| CS(=O)(=O)c1ccc([C@@H](O)[C@@H](CO)NC(=O)C(Cl)Cl)cc1 [Thiamphenicol] | 500 |
| CC1(C)S[C@@H]2[C@H](NC(=O)[C@H](C(=O)O)c3ccsc3)C(=O)N2[C@H]1C(=O)O [Ticarcillin] | 250 |
| CN(C)c1cc(NC(=O)CNC(C)(C)C)c(O)c2c1C[C@H]1C[C@H]3[C@H](N(C)C)C(O)=C(C(N)=O)C(=O)[C@@]3(O)C(O)=C1C2=O [Tigecycline] | 16 |
| NC[C@H]1O[C@H](O[C@H]2[C@H](O)[C@@H](O[C@H]3O[C@H](CO)[C@@H](O)[C@H](N)[C@H]3O)[C@H](N)C[C@@H]2N)[C@H](N)C[C@@H]1O [Tobramycin] | 16 |
| COc1cc(Cc2cnc(N)nc2N)cc(OC)c1OC [Trimethoprim] | 16 |
| C[C@@H](c1ncncc1F)[C@](O)(Cn1cncn1)c1ccc(F)cc1F [Voriconazole] | 2 |
